Experimental data as given in patent publication US20230190755A1, “Topical formulations of PI3K-delta inhibitors” (Incyte Corporation, priority 2021, published 2023).
Structures can show the parent of a compound that is named as a salt.

Key:
[1] = molecular target: T1, PI3Kγ (Homo sapiens, UniProt P48736); experiment: PI3K enzyme assay of Example 7 ([γ-33P]ATP filter plate); type: biochemical
T1 construct: purchased Millipore (Bedford, Mass.)
Procedure: (§1) Materials: Lipid kinase substrate, phosphoinositol-4,5-bisphosphate (PIP2), are purchased from Echelon Biosciences (Salt Lake City, Utah). PI3K isoforms α, β, δ and γ are purchased from Millipore (Bedford, Mass.). ATP, MgCl2, DTT, EDTA, MOPS and CHAPS are purchased from Sigma-Aldrich (St. Louis, Mo.).
(§2) The kinase reaction are conducted in clear-bottom 96-well plate from Thermo Fisher Scientific in a final volume of 24 μL. Inhibitors are first diluted serially in DMSO and added to the plate wells before the addition of other reaction components. The final concentration of DMSO in the assay is 0.5%. The PI3K assays are carried out at room temperature in 20 mM MOPS, pH 6.7, 10 mM MgCl2, 5 mM DTT and CHAPS 0.03%. The reaction mixture is prepared containing 50 μM PIP2, kinase and varying concentration of inhibitors. Reactions are initiated by the addition of ATP containing 2.2 μCi [γ-^33P]ATP to a final concentration of 1000 μM. The final concentration of PI3K isoforms α, β, δ and γ in the assay were 1.3, 9.4, 2.9 and 10.8 nM, respectively. Reactions are incubated for 180 minutes and terminated by the addition of 100 μL of 1 M potassium phosphate pH 8.0, 30 mM EDTA quench buffer. A 100 μL aliquot of the reaction solution are then transferred to 96-well Millipore MultiScreen IP 0.45 μm PVDF filter plate (The filter plate is prewetted with 200 μL 100% ethanol, distilled water, and 1 M potassium phosphate pH 8.0, respectively). The filter plate is aspirated on a Millipore Manifold under vacuum and washed with 18×200 μL wash buffer containing 1 M potassium phosphate pH 8.0 and 1 mM ATP. After drying by aspiration and blotting, the plate is air dried in an incubator at 37° C. overnight. Packard TopCount adapter (Millipore) is then attached to the plate followed with addition of 120 μL Microscint 20 scintillation cocktail (Perkin Elmer) in each well. After the plate sealing, the radioactivity of the product is determined by scintillation counting on Topcount (Perkin-Elmer). IC50 determination is performed by fitting the curve of percent control activity versus the log of the inhibitor concentration using the GraphPad Prism 3.0 software.

[2] = molecular target: T2, PI3Kδ (Homo sapiens, UniProt O00329); experiment: as above; type: biochemical
T2 construct: purchased Millipore (Bedford, Mass.)
Procedure: as §1, §2

[3] = molecular target: T3, PI3Kα (Homo sapiens, UniProt P42336); experiment: as above; type: biochemical
T3 construct: purchased Millipore (Bedford, Mass.)
Procedure: as §1, §2

[4] = molecular target: T4, PI3Kβ (Homo sapiens, UniProt P42338); experiment: as above; type: biochemical
T4 construct: purchased Millipore (Bedford, Mass.)
Procedure: as §1, §2

[5] = IC90 value in the dermis
Procedure: Based on initial studies it is believed that topical administration of a strength of 0.01% may result in mean plasma concentration of approximately 1 nM at steady state.

[6] = molecular target: PI3Kδ (p110δ/p85α) (Homo sapiens, UniProt O00329); experiment: PI3Kδ scintillation proximity assay (Example 8); type: biochemical; conditions: 20 μM ATP, 4 nM PI3Kδ
Source text: Lipid kinase substrate, D-myo-Phosphatidylinositol 4,5-bisphosphate (PtdIns(4,5)P2)D (+)-sn-1,2-di-O-octanoylglyceryl, 3-O-phospho linked (PIP2), CAS 204858-53-7, was purchased from Echelon Biosciences (Salt Lake City, Utah). PI3Kδ (p110δ/p85α) was purchased from Millipore (Bedford, Mass.). ATP, MgCl2, DTT, EDTA, MOPS and CHAPS were purchased from Sigma-Aldrich (St. Louis, Mo.). Wheat Germ Agglutinin (WGA) YSi SPA Scintillation Beads was purchased from GE healthcare life sciences (Piscataway, N.J.).
The kinase reaction was conducted in polystyrene 384-well matrix white plate from Thermo Fisher Scientific in a final volume of 25 μL. Inhibitors were first diluted serially in DMSO and added to the plate wells before the addition of other reaction components. The final concentration of DMSO in the assay was 0.5%. The PI3K assays were carried out at room temperature in 20 mM MOPS, pH 6.7, 10 mM MgCl2, 5 mM DTT and CHAPS 0.03%. […] ATP, 4 nM PI3Kδ. Reactions were incubated for 210 min and terminated by the addition of 40 μL SPA beads suspended in quench buffer: 150 mM potassium phosphate pH 8.0, 20% glycerol. 25 mM EDTA, 400 μM ATP. […] After the plate sealing, plates were shaken overnight at room temperature and centrifuged at 1800 rpm for 10 minutes, the radioactivity of the product was determined by scintillation counting on Topcount (Perkin-Elmer). […]

[7] = Free fraction in plasma, minipig; type: in vitro ADME
Procedure: (§3) The concentration of Compound A was measured in the epidermis, dermis, and plasma 24 hours post application. Dermal concentrations in minipigs dosed with 1.0% w/w topical formulation were 8× higher compared with dermal concentrations in minipigs dosed with the 0.1% topical formulation. The epidermal concentration for 1.0% w/w topical formulation was 6× higher compared with the 0.1% w/w topical dose. The epidermal concentrations accounted for the combined drug levels in the stratum corneum and viable epidermis layers (i.e., skin samples were not tape stripped). Relatedly, the free fraction of Compound A in plasma and homogenized human skin was evaluated by equilibrium dialysis studies. The mean free fraction in human plasma and skin was […] respectively. In minipigs, the free fraction in plasma was measured at 3.1%.

[8] = Free fraction by equilibrium dialysis, human plasma and homogenized human skin; type: in vitro ADME
Procedure: as §3

T4 sequence (P42338 whole entry): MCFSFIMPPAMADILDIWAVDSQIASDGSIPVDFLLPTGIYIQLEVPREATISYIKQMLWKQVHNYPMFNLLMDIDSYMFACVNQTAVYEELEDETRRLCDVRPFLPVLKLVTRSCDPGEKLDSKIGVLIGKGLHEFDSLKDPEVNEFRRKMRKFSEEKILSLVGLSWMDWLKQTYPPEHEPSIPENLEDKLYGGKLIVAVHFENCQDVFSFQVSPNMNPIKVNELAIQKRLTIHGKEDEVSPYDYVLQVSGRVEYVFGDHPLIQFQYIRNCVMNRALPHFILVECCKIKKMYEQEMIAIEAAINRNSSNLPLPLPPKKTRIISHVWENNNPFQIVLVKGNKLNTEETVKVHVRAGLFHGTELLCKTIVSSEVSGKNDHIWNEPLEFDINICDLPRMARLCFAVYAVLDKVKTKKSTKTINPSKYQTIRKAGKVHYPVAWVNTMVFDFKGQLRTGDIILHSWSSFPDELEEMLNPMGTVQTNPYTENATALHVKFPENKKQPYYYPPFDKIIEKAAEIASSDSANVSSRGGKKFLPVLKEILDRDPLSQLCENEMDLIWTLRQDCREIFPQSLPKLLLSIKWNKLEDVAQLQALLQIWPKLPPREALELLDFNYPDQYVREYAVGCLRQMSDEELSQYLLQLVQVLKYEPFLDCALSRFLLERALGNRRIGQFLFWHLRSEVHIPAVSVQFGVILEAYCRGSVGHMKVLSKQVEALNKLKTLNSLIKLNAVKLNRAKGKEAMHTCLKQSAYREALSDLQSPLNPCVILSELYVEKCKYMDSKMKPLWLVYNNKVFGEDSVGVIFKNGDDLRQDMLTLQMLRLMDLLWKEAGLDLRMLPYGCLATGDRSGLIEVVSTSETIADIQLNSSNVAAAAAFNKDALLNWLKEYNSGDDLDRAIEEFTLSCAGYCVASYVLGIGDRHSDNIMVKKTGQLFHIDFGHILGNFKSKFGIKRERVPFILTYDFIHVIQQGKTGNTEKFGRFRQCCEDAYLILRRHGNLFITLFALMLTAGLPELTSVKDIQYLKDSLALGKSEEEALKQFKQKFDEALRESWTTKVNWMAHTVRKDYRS
T4 sequence (P27986 whole entry partner): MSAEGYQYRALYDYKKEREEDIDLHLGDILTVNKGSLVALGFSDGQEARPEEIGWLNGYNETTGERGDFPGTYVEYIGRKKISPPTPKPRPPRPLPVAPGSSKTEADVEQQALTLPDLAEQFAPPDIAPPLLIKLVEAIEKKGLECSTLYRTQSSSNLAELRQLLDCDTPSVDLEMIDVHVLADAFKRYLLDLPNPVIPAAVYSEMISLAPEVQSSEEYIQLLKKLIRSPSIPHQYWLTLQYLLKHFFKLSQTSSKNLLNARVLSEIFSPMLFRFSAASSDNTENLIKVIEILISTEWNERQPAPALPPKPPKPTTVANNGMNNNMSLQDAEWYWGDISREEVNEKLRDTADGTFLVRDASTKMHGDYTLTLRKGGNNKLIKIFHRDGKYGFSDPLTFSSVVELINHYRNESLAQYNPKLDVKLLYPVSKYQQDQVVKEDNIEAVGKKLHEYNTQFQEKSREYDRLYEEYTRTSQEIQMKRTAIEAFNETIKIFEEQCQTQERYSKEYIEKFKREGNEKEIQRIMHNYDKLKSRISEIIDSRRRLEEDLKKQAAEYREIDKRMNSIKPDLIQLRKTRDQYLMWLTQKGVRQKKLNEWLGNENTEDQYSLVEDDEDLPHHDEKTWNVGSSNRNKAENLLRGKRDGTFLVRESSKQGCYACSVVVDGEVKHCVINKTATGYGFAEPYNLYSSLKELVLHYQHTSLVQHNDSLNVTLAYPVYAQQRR
T3 sequence (P42336 whole entry): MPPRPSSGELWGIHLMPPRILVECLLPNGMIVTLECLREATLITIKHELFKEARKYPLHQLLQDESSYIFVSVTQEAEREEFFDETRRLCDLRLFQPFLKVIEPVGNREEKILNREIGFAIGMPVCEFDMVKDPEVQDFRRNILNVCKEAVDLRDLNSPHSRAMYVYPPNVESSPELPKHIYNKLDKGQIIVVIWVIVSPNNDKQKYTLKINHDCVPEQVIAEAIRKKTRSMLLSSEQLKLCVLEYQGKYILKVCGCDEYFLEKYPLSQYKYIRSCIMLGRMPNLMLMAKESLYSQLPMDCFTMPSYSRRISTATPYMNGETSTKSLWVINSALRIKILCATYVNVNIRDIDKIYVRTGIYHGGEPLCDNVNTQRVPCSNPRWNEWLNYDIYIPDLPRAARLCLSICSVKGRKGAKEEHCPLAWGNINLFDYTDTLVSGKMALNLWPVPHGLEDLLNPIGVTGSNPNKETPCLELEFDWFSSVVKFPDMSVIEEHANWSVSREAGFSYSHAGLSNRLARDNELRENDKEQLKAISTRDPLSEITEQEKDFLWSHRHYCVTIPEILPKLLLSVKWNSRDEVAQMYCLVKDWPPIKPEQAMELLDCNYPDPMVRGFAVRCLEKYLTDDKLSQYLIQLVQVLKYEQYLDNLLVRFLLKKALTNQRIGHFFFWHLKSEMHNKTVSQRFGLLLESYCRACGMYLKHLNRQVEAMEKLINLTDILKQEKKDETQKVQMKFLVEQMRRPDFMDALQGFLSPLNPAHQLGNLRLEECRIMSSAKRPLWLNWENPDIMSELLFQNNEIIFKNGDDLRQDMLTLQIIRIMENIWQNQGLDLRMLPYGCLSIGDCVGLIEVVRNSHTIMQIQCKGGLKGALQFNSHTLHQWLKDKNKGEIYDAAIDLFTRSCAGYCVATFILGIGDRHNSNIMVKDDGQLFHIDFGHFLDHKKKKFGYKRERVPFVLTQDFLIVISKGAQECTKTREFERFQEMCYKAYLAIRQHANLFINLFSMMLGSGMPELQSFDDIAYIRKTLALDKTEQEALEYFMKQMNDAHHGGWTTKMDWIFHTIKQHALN
T3 sequence (P27986 whole entry partner): as the sequence (P27986 whole entry partner) above
T1 sequence (P48736 whole entry): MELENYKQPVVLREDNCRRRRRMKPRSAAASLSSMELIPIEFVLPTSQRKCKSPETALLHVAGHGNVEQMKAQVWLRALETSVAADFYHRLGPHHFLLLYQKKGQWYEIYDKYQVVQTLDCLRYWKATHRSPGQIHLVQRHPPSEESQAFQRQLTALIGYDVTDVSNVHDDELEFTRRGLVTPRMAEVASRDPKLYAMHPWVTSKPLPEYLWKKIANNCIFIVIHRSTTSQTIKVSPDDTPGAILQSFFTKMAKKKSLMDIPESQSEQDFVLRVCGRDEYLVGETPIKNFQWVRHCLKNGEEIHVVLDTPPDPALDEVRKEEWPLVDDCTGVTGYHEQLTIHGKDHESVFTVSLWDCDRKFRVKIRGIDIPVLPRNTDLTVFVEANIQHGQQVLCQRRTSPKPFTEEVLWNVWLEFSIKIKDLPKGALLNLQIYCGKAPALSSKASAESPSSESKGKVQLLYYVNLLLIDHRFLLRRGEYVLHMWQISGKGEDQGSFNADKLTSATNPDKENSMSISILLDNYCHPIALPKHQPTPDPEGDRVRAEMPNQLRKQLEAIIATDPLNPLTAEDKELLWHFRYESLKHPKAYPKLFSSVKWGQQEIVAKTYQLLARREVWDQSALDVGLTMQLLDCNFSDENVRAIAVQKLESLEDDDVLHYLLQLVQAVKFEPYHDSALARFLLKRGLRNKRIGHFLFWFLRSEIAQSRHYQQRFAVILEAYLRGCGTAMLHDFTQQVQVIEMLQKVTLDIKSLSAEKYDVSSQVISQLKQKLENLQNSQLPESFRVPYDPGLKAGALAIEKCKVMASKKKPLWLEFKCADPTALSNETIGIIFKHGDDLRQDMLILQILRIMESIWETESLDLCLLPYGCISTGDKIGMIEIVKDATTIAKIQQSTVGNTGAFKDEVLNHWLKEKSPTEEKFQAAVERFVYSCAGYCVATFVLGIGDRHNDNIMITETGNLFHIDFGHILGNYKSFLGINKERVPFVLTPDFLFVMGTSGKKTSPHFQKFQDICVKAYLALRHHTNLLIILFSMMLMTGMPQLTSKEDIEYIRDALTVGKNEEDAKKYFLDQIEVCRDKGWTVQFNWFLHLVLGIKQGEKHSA
Sequence of PI3Kδ (p110δ/p85α) (O00329 whole entry): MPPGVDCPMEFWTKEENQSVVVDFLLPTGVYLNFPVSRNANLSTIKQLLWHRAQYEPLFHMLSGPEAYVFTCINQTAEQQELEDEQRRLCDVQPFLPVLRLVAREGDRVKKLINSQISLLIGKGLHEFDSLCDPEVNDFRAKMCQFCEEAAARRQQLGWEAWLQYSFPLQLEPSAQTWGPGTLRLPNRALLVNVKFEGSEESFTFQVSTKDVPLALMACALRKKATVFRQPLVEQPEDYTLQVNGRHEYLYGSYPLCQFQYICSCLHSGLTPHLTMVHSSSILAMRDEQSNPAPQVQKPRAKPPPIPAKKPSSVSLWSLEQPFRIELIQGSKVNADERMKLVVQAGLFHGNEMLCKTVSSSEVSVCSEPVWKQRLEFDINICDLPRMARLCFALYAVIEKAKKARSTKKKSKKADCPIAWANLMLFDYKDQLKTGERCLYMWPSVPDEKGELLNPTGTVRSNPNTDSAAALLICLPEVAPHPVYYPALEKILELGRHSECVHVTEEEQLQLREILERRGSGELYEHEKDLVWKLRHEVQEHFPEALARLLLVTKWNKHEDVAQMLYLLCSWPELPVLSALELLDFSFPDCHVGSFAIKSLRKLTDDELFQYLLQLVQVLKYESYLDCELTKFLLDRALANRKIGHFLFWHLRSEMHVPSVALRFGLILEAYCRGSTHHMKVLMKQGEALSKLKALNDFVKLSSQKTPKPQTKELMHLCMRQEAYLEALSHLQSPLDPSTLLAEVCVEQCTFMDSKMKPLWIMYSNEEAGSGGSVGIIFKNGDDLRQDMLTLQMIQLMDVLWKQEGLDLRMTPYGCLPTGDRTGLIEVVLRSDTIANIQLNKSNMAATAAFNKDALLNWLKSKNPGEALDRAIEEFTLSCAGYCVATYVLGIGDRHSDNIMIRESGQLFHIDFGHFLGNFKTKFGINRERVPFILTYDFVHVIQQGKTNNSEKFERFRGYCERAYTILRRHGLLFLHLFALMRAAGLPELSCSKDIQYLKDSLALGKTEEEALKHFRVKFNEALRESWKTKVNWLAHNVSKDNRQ
Sequence of PI3Kδ (p110δ/p85α) (P27986 whole entry partner): as the sequence (P27986 whole entry partner) above

CCOc1c([C@H](C)n2nc(C)c3c(N)ncnc32)cc(Cl)c(F)c1[C@@H]1CNC(=O)C1 [Compound A HCl, (R)-4-(3-((S)-1-(4-Amino-3-methyl-1H-pyrazolo[3,4-d]pyrimidin-1-yl)ethyl)-5-chloro-2-ethoxy-6-fluorophenyl)pyrrolidin-2-one Hydrochloric Acid Salt]
selectivity for PI3Kδ over PI3Kγ [1]: > 100 fold | selectivity for PI3Kδ (in words) [2]: selective inhibitor for PI3Kδ | selectivity for PI3Kδ over PI3Kα [3]: > 100 fold | selectivity for PI3Kδ over PI3Kβ [4]: > 100 fold

CCOc1c([C@H](C)n2nc(C)c3c(N)ncnc32)cc(Cl)c(F)c1[C@@H]1CNC(=O)C1 [Compound A, (R)-4-(3-((S)-1-(4-amino-3-methyl-1H-pyrazolo[3,4-d]pyrimidin-1-yl)ethyl)-5-chloro-2-ethoxy-6-fluorophenyl)pyrrolidin-2-one]
IC90 [5]: ~20 nM | IC50 [6]: < 10 nM | fraction unbound [7]: 0.031 | fraction unbound ([8]; homogenized skin, read-out: Mean free fraction in homogenized human skin): 0.33 | fraction unbound ([8]; plasma, read-out: Mean free fraction in human plasma): 0.074
